Values of other authors as cited in patent US20100028395A1, “COMPOSITIONS CONTAINING N-ACETYLGLUCOSAMINE FOR USE IN DERMO-COSMETOLOGY AND AESTHETIC MEDICINE” (ROTTAPHARM S.P.A., priority 2007, published 2010).

Key:
hyaluronate synthetase = conditions: plasma membrane fractions of human skin fibroblasts; cited from earlier work
[1] = system: MatTek Human Skin EpiDemFT skin model; conditions: addition of NAG to in vitro skin model; cited from earlier work

CC(=O)N[C@@H](C=O)[C@@H](O)[C@H](O)[C@H](O)CO [NAG, N-acetyl-2-amino-2 deoxyglucose]
activity of the enzyme hyaluronate synthetase (hyaluronate synthetase): stimulates
increase of HA [1]: very high, significant and dose dependent increase
increase of pro-collagen 1 [1]: very high, significant and dose dependent increase
